Ends that are not written are not given here.
What follows are compounds tested on CTL from healthy donors having an HLA-A*0201 molecule (assay: Cytotoxic activity of CTL induced by HLA-A*0201-restricted eEF2 peptides). Details: PBMC of HLA-A*0201 donors stimulated with peptide; 6th day after the final peptide stimulation.
Assay type: cell-based, human
Method: From T cell clones established as described above, CD8-positive T cells were purified using CD8 Microbeads to prepare effector cells. Subsequently, target cells were incubated with ^51Cr-labeled sodium chromate (Amersham Biosciences Corp., NJ) for 1 hour to label the cells. They were then mixed with the effector cells so that the ratio of cell count was 1:1, 3:1 and 9:1 of CTL/target cell (E/T) ratio, and the mixture was allowed to stand for 4 hours. The percentage of cells lysed was calculated according to the following equation: Specific lysis %=[(cpm experimental release−cpm spontaneous release)/(cpm maximal release−cpm spontaneous release)]×100. T2-2402 cells pulsed with an eEF2786-794 pep tide were used as the target cells, and T2-2402 cells not pulsed with the eEF2786-794 peptide (SEQ ID NO:7) as a negative control.
The experiments were carried out in much the same way as in the above Example 3. Thus, blood was taken from healthy donors having an HLA-A*0201 molecule, peripheral blood mononuclear cells were separated, and the first stimulation was carried out using the six candidate peptides (stimulator: self-PBMC). Subsequently, the peptide stimulation on the second day and later was carried out at intervals of 8 to 13 days (stimulator: allo B-LCL 3 mg/ml). Furthermore, IL-2 was added every 2 days after the second stimulation at a final concentration of 20 IU/ml. Cytotoxicity was measured on the 6th day after the final peptide stimulation.

| Compound | cytotoxic activity |
| --- | --- |
| CC(C)C[C@H](NC(=O)[C@H](CCC(N)=O)NC(=O)[C@H](CS)NC(=O)[C@H](Cc1ccccc1)NC(=O)[C@@H](NC(=O)[C@H](CCCNC(=N)N)NC(=O)[C@@H]1CCCN1C(=O)[C@H](CC(C)C)NC(=O)[C@@H](N)CCCCN)[C@@H](C)O)C(=O)O [eEF2284-292] | increase of cytotoxic activity was observed |
| CC[C@H](C)[C@H](NC(=O)[C@@H]1CCCN1C(=O)[C@H](CC(=O)O)NC(=O)[C@H](CC(C)C)NC(=O)[C@H](CC(C)C)NC(=O)[C@@H](N)CC(C)C)C(=O)N[C@@H](Cc1ccccc1)C(=O)N[C@@H](CCCCN)C(=O)N[C@@H](CC(C)C)C(=O)O [eEF2292-300 2L9L] | increase cytotoxicity |
| CC[C@H](C)[C@H](NC(=O)[C@@H]1CCCN1C(=O)[C@H](CC(=O)O)NC(=O)[C@H](CC(C)C)NC(=O)[C@H](CC(C)C)NC(=O)[C@@H](N)CC(C)C)C(=O)N[C@@H](Cc1ccccc1)C(=O)N[C@@H](CCCCN)C(=O)N[C@H](C(=O)O)C(C)C [eEF2292-300 2L] | increase cytotoxicity |
| CC[C@H](C)[C@H](NC(=O)[C@@H]1CCCN1C(=O)[C@H](CC(=O)O)NC(=O)[C@H](CC(C)C)NC(=O)[C@H](CCSC)NC(=O)[C@@H](N)CC(C)C)C(=O)N[C@@H](Cc1ccccc1)C(=O)N[C@@H](CCCCN)C(=O)N[C@@H](CC(C)C)C(=O)O [eEF2292-300 2M9L] | increase cytotoxicity |
| CC[C@H](C)[C@H](NC(=O)[C@@H]1CCCN1C(=O)[C@H](CC(=O)O)NC(=O)[C@H](CC(C)C)NC(=O)[C@H](CCSC)NC(=O)[C@@H](N)CC(C)C)C(=O)N[C@@H](Cc1ccccc1)C(=O)N[C@@H](CCCCN)C(=O)N[C@H](C(=O)O)C(C)C [eEF2292-300 2M] | increase cytotoxicity |
| CC[C@H](C)[C@H](NC(=O)[C@H](Cc1ccc(O)cc1)NC(=O)[C@H](CCSC)NC(=O)[C@H](CCSC)NC(=O)[C@@H](N)CC(C)C)C(=O)N[C@@H](CO)C(=O)N[C@@H](CCCCN)C(=O)N[C@@H](CCSC)C(=O)N[C@H](C(=O)O)C(C)C [eEF2394-402] | increase of cytotoxic activity was observed |
| CC(C)C[C@H](NC(=O)[C@H](CCCNC(=N)N)NC(=O)[C@H](CCCCN)NC(=O)[C@H](CC(C)C)NC(=O)CNC(=O)[C@H](CCC(=O)O)NC(=O)[C@@H](NC(=O)[C@H](CC(C)C)NC(=O)[C@@H](N)CCCCN)C(C)C)C(=O)O [eEF2519-527] | increase of cytotoxic activity was observed |
| CC[C@H](C)[C@H](N)C(=O)N[C@@H](CC(C)C)C(=O)N[C@H](C(=O)N[C@@H](CC(=O)O)C(=O)N[C@H](C(=O)N[C@H](C(=O)N[C@@H](CCCCN)C(=O)NCC(=O)N[C@H](C(=O)O)C(C)C)[C@@H](C)O)[C@@H](C)CC)[C@@H](C)O [eEF2661-669] | increase of cytotoxic activity was observed |
| CC[C@H](C)[C@H](NC(=O)[C@H](CCC(=O)O)NC(=O)[C@H](CC(N)=O)NC(=O)[C@H](CC(C)C)NC(=O)[C@@H](N)Cc1ccc(O)cc1)C(=O)N[C@@H](CCCCN)C(=O)N[C@@H](CC(=O)O)C(=O)N[C@@H](CO)C(=O)N[C@H](C(=O)O)C(C)C [eEF2671-679] | increase of cytotoxic activity was observed |
| CC[C@H](C)[C@H](NC(=O)[C@@H]1CCCN1C(=O)[C@H](CCC(=O)O)NC(=O)[C@H](CCSC)NC(=O)[C@H](CC(C)C)NC(=O)[C@@H](N)CCCNC(=N)N)C(=O)N[C@@H](Cc1ccc(O)cc1)C(=O)N[C@@H](CC(C)C)C(=O)N[C@H](C(=O)O)C(C)C [eEF2739-747] | increase of cytotoxic activity was observed |

Each compound was assayed on CD8-positive T cells of donors having the HLA-A*0206 molecule (assay: Interferon-γ production, donors having the HLA-A*0206 molecule). Details: not given.
Assay type: cell-based
Method: (§1) T cells were incubated together with HLA-A*0201 molecule-expressing T2 cells pulsed with HLA-A*0201-restricted eEF2 peptides in the presence of brefeldin A (Sigma) at 37° C. for 5 hours. After washing with PBS, CD3 and CD8 molecules which are cell surface antigens were stained by PerCP-conjugated anti-CD3 (BD Biosciences) and PE-conjugated anti-CD8 (Caltag, Burlingame, Calif.) antibodies on ice for 15 minutes. Subsequently, cells were fixed using Cytofix (BD Biosciences) on ice for 20 minutes, and intracellular IFN-γ was reacted with an FITC-conjugated anti-IFN-γ antibody (BD Biosciences) on ice for 30 minutes. Frequency of IFN-γ-positive cells present in CD8-positive T cells was analyzed using a flow cytometer.
Next, evaluation was carried out as to whether the above 6 peptides and the eEF2292-300 peptide (SEQ ID NO:14) can bind to an HLA-A*0206 molecule and produce interferon-γ. The experiments were carried out in the same way as in the above method, except that donors having the HLA-A*0206 molecule were used.

| Compound | production of interferon-γ |
| --- | --- |
| LILDPIFKV (listed as Homo sapiens) [eEF2292-300] | also serve as an HLA-A*0206-restricted peptide |

Each compound was assayed on colon cancer SW480 cells (assay: Cytotoxic activity (51Cr release) of peptide-induced CTL against endogenous eEF2 gene-expressing cells). Details: SW480 (HLA-A*2402 on surface) vs AZ-521 and MiaPaCa2 (no HLA-A*2402) as negative control.
Assay type: cell-based

| Compound | cytotoxic activity against endogenous eEF2 gene-expressing cells |
| --- | --- |
| AYLPVNESF [eEF2786-794] | specifically impair the cells which express the eEF2 and have the HLA-A*2402 molecule |

Each compound was assayed on CD8-positive T cells (assay: Interferon-γ activity, T cells with peptide-pulsed HLA-A*2402 molecule-expressing T2 cells). Details: HLA-A*2402 molecule-expressing T2 cells pulsed with peptide, 5 hours.
Assay type: cell-based
Method: as §1, with “HLA-A*2402” for “HLA-A*0201”, “with” for “with HLA-A*0201-restricted”, “peptides (eEF2409-417, eEF2412-420 and eEF2701-709 peptides)” for “peptides”

| Compound | interferon-γ activity (frequency of IFN-γ-positive cells in CD8-positive T cells) |
| --- | --- |
| AFGRVFSGL [eEF2412-420] | increase the interferon-γ activity |
| RFDVHDVTL [eEF2701-709] | increase the interferon-γ activity |
| RFYAFGRVF (listed as Homo sapiens) [eEF2409-417] | increase the interferon-γ activity |

From US10383925B2, “Cancer antigen EEF2” (International Institute of Cancer Immunology, Inc., priority 2009, dated 2019)
